Measured values published in US20060079453A1, “Hla binding peptides and their uses” (priority 2002, published 2006).
Like-named read-outs stand apart in the source and are kept apart here. No end group written: not given here.

Tests used:
Test in all cases: biochemical
Assay type in all cases: binding
HLA-DR DRB1*0101 (DR1) = HLA-DR DRB1*0101 (DR1) (Homo sapiens, UniProt P01903+P01911, A100R/D57E/F55L/F60I/F76Y/I96L/L162R/M171V/P40L/Q125E/R42F/V115G/Y59C)
HLA-DR DRB1*0401 (DR4) = HLA-DR DRB1*0401 (DR4) (Homo sapiens, UniProt P01903+P01911, A100K/A169T/F76Y/I96L/K127E/L162R/M171V/N62H/P40V/Q125Y/R42H/S133A/S149N/S66Y/V115G/V209L/W38E)
HLA-DR DRB1*0701 (DR7) = HLA-DR DRB1*0701 (DR7) (Homo sapiens, UniProt P01903+P01911, A100R/A102G/A103Q/D57E/D86V/E43K/F76Y/K127E/L162R/M171V/P40G/Q125H/Q99D/R33Q/R42Y/R54Q/S133A/S66F/T210M/V115G/Y107V/Y59L/Y89S)
HLA-DR DRB1*0802 (DR8) = HLA-DR DRB1*0802 (DR8) (Homo sapiens, UniProt P01903+P01911, A100R/A103L/A169T/F76Y/H45Y/I96F/K41T/L162R/M171V/P40S/Q125H/Q178H/Q39Y/Q99D/R218S/R42G/S66Y/V115G/W38E)
HLA-DR DRB4*0101 (DR53) = HLA-DR DRB4*0101 (DR53) (Homo sapiens, UniProt P01903+P13762, G164S); conditions: DRB4 *0101
HLA-DR DRB1*0301 (DR3) = HLA-DR DRB1*0301 (DR3) (Homo sapiens, UniProt P01903+P01911, A100K/A102G/A103R/A169T/F55Y/I96L/K41T/L162R/M171V/P40S/Q125H/Q178H/Q39Y/R42S/S66N/T106N/T262R/W38E/Y61H)
Chain of HLA-DR DRB1*0301 (DR3) (P01903 26-254 limits assumed, other chains not shown): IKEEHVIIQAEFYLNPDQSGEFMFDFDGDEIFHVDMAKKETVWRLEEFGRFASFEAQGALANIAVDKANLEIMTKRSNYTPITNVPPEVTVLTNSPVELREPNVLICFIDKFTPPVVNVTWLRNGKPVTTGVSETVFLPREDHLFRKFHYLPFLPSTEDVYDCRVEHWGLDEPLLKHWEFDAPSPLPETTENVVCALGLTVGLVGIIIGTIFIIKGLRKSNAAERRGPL

HLA-DR DRB1*0901 (DR9) = HLA-DR DRB1*0901 (DR9) (Homo sapiens, UniProt P01903+P01911, A100R/A103E/D57H/D86V/F55Y/F60I/F76Y/I96F/K127E/L162R/M171V/P40D/Q125H/Q99R/R33Q/R42F/S133A/S66N/T210M/V115G/W38K/Y107V/Y59G/Y89S)
HLA-DR DRB1*1501 (DR15) = HLA-DR DRB1*1501 (DR15) (Homo sapiens, UniProt P01903+P01911); conditions: DRBI *1501
HLA-DR DRB5*0101 (DR51) = HLA-DR DRB5*0101 (DR51) (Homo sapiens, UniProt P01903+Q30154); conditions: DRB5 *0101
HLA-DR DRB1*1101 (DR11) = HLA-DR DRB1*1101 (DR11) (Homo sapiens, UniProt P01903+P01911, A100R/A169T/A87E/I96F/K41T/L162R/M171V/P40S/Q125H/Q178H/Q39Y/Q99D/R42S/S66Y/T262R/V115G/W38E); conditions: DRB1 *1101
Chain of HLA-DR DRB1*1101 (DR11) (P01903 26-254 limits assumed, other chains not shown): as above

HLA-DR DRB1*1302 (DR13) = HLA-DR DRB1*1302 (DR13) (Homo sapiens, UniProt P01903+P01911, A100E/A169T/K41T/L162R/M171V/P40S/Q125H/Q178H/Q39Y/Q99D/R42S/S66N/T262R/V115G/W38E/Y61H); conditions: DRBI *1302
Chain of HLA-DR DRB1*1302 (DR13) (P01903 26-254 limits assumed, other chains not shown): as above

Compound | IC50 (HLA-DR DRB1*0101 (DR1); DRB1 *0101) [µM] | IC50 (HLA-DR DRB1*0401 (DR4); DRB1 *0401) [µM] | IC50 (HLA-DR DRB1*0701 (DR7); DRB1 *0701) [µM] | IC50 (HLA-DR DRB1*0401 (DR4); read-out: DRB1 *0401) [µM] | IC50 (HLA-DR DRB1*0701 (DR7); read-out: DRB1 *0701) [µM] | IC50 (HLA-DR DRB4*0101 (DR53)) [µM] | IC50 (HLA-DR DRB1*0901 (DR9); DRB1 *0901) [µM] | IC50 (HLA-DR DRB5*0101 (DR51)) [µM] | IC50 (HLA-DR DRB1*1101 (DR11)) [µM] | IC50 (HLA-DR DRB1*1302 (DR13)) [µM] | IC50 (HLA-DR DRB1*0301 (DR3); read-out: DRB1 *0301) [µM] | IC50 (HLA-DR DRB1*0101 (DR1); read-out: DRB1 *0101) [µM] | IC50 (HLA-DR DRB1*0901 (DR9); read-out: DRB1 *0901) [µM] | other results
SKIMKLPKLPISNGK | 0.824 | 6.49 | 83.7 | – | – | – | – | – | – | – | – | – | – | IC50 (HLA-DR DRB1*0802 (DR8)): 0.11 µM
SMEYKKDFLITARKP | – | – | – | 0.024 | 0.776 | – | – | – | – | – | – | – | – | IC50 (HLA-DR DRB1*0802 (DR8); read-out: DRB1 *0802): 8.9 µM
CC[C@H](C)[C@H](NC(=O)[C@H](CC(C)C)NC(=O)[C@H](CCCCN)NC(=O)[C@H](CCCCN)NC(=O)[C@@H](N)Cc1ccc(O)cc1)C(=O)N[C@@H](CCSC)C(=O)N[C@@H](Cc1ccc(O)cc1)C(=O)N[C@@H](CO)C(=O)N[C@@H](C)C(=O)N[C@@H](Cc1c[nH]cn1)C(=O)N[C@@H](CC(=O)O)C(=O)N[C@H](C(=O)N[C@H](C(=O)N[C@H](C(=O)N[C@@H](CO)C(=O)O)C(C)C)[C@@H](C)O)[C@@H](C)O | 0.017 | – | – | – | – | 0.0058 | 0.107 | 5.48 | 0.208 | 0.037 | – | – | – | IC50 (HLA-DR DRB1*0301 (DR3)): 22.7 µM; IC50 (HLA-DR DRB1*1501 (DR15)): 0.015 µM
NVNLQKQLLTNHLIN [NVNLQKQLLTNHLIN] | 0.096 | 2.46 | 0.555 | – | – | 0.354 | – | > 7.21 | – | – | – | – | – | IC50 (HLA-DR DRB1*1501 (DR15)): 4.45 µM; IC50 (HLA-DR DRB1*0802 (DR8)): 11.2 µM
VQQLLMGALTVTCPL | 0.01 | – | 0.071 | – | – | 0.204 | 0.18 | 7.15 | 11.1 | 0.574 | – | – | – | IC50 (HLA-DR DRB1*0301 (DR3)): 34.3 µM
QAISPRTLNSPAIF | – | – | – | 6.21 | 39.7 | – | – | – | – | – | 298 | 1.96 | 286 | –
GYKVLVLNPSV | – | – | – | 0.027 | – | – | – | – | – | – | 72.4 | 0.016 | 8.79 | –
SVTWIGAAPLILSPI | – | – | – | 3.15 | 0.083 | – | – | – | – | – | > 81.8 | 0.0041 | 0.03 | –
TLRLCVQSTHVDIRT | 1.52 | 12 | 3.26 | – | – | 0.243 | 6.37 | > 22.9 | 17.6 | 0.932 | – | – | – | –
LCNFKKNIIALLIIP | – | – | – | 0.312 | – | – | – | – | – | – | – | 0.0097 | – | IC50 (HLA-DR DRB1*0802 (DR8); read-out: DRB1 *0802): 21.3 µM
